Source: patent publication US8586628B2, “Use of Propineb as bird repellent” (Bayer Cropscience AG, priority 2009, dated 2013)
Where “and” joins values, the source holds several entries; their conditions need not be identical. Identical values can stand only once.

System: pigeon
Test: Screening experiment with pigeon on the repellency of treated maize seeds (two-bowl choice, treated vs untreated maize)
Assay type: in vivo
Details: for Food consumption of untreated maize (U), Day 1 / Food consumption of untreated maize (U), Day 2: untreated bowl beside treated bowl; for Mean food consumption of untreated maize per group and per day, day 0 / Mean food consumption of untreated maize per group and per day, day 1 / Mean food consumption of untreated maize per group and per day, day 3 / Food consumption of untreated maize (U), Mean/group / Food consumption of untreated maize (U), Mean/birds: untreated bowl; for Food consumption of untreated maize (U), Mean/group / Food consumption of treated maize (T), Mean/group: mean of 3 pigeons over Day 0-2; for Food consumption of untreated maize (U), Day 0: untreated bowl (40 g) offered beside treated bowl
Method: Screening Experiment with Pigeon on the Repellency of Maize Seeds Treated with Different Thiram and Propineb Formulations
15 singly housed pigeons were acclimated to maize as food source over a couple of days. From day—3 to day—1 they received exclusively untreated maize (40 g/bird). Food consumption was determined (see Table 1 below). All birds accepted maize seed as food. The different groups behaved similarly:
Food was offered in 2 bowls, one with treated, the other with untreated maize. The position of the two bowls was changed from day to day as well as during the day. Food consumption was again measured (see Table 2 below)
Group 1 (Aviary 1 to 3): Thiram 160 g/dt
Group 2 (Aviary 4 to 6): Thiram 80 g/dt
Group 3 (Aviary 7 to 9): Propineb160 g/dt
Group 4 (Aviary 10 to 12):Propineb 80 g/dt

[1] = 80 g/dt group, single pigeon, Day 1
[2] = 80 g/dt group, mean per bird over Day 0-2

Row | Compound | Food consumption of untreated maize (U), Day 1 [1] | Food consumption of untreated maize (U), Day 2 (80 g/dt group, single pigeon) | Mean food consumption of untreated maize per group and per day, day 0 (80 g/dt group) [g] | Mean food consumption of untreated maize per group and per day, day 1 (80 g/dt group) [g] | Mean food consumption of untreated maize per group and per day, day 3 (80 g/dt group) [g] | Food consumption of untreated maize (U), Mean/group (80 g/dt group) [g] | Food consumption of untreated maize (U), Mean/birds [2] | Food consumption of untreated maize (U), Day 2 (160 g/dt group, single pigeon) | Mean food consumption of untreated maize per group and per day, day 0 (160 g/dt group) [g] | Mean food consumption of untreated maize per group and per day, day 1 (160 g/dt group) [g] | Mean food consumption of untreated maize per group and per day, day 3 (160 g/dt group) [g] | Food consumption of untreated maize (U), Mean/group (160 g/dt group) [g] | Mean food consumption of treated maize per group and per day, day 0 (maize treated at 80 g/dt) [g] | Mean food consumption of treated maize per group and per day, day 1 (maize treated at 80 g/dt) [g] | Mean food consumption of treated maize per group and per day, day 3 (maize treated at 80 g/dt) [g] | Food consumption of treated maize (T), Mean/group (maize treated at 80 g/dt) [g] | Mean food consumption of treated maize per group and per day, day 0 (maize treated at 160 g/dt) [g] | Mean food consumption of treated maize per group and per day, day 1 (maize treated at 160 g/dt) [g] | Mean food consumption of treated maize per group and per day, day 3 (maize treated at 160 g/dt) [g] | Food consumption of treated maize (T), Mean/group (maize treated at 160 g/dt) [g] | other results
1 | CN(C)C(=S)SSC(=S)N(C)C [Thiram, reference compound] | 11.8 g and 18.4 g and 18.2 g | 14.5 g and 19.3 g and 19.7 g | 16.4 | 16.1 | 17.8 | 16.8 | 13.6 g and 17.8 g and 18.9 g | 14.5 g and 23.4 g and 23.0 g | 16.9 | 18.5 | 20.3 | 18.6 | 0.9 | 0.2 | 1.1 | 0.7 | 6.0 | 5.3 | 2.8 | 4.6 | Food consumption of untreated maize (U), Day 0 (80 g/dt seed treatment group, single pigeon (aviary), Day 0): 14.4 g and 15.8 g and 18.9 g; Food consumption of treated maize (T), Mean/birds (maize treated at 160 g/dt, mean per bird over Day 0-2): 0.0 g
2 | Propineb | 17.5 g and 23.2 g and 20.6 g | 25.9 g and 27.5 g and 28.6 g | 14.1 | 20.4 | 27.3 | 20.6 | 20.1 g and 23.6 g and 18.0 g | 26.1 g and 19.9 g and 28.3 g | 22.6 | 24.8 | 24.8 | 24.4 | 2.8 | 2.1 | 0.0 | 1.7 | 0.0 | 0.6 | 0.0 | 0.2 | Food consumption of untreated maize (U), Day 1 (160 g/dt group, single pigeon, Day 1): 24.6 g and 19.5 g and 30.2 g; Food consumption of untreated maize (U), Mean/birds (160 g/dt group, mean per bird over Day 0-2): 24.6 g and 21.3 g and 26.2 g; Food consumption of untreated maize (U), Day 0 (160 g/dt seed treatment group, single pigeon (aviary), Day 0): 23.1 g and 24.6 g and 20.0 g; Bird repellent activity compared with Thiram (compared at the registered rate of Thiram, pigeon, treated maize seed): substantially better activity than Thiram; Food consumption of treated maize (T), Day 1 (maize treated at 80 g/dt, choice with untreated, single pigeon, Day 1): 2.9 g and 1.7 g and 1.8 g; Food consumption of treated maize (T), Day 2 (maize treated at 80 g/dt, choice with untreated, single pigeon): 0.0 g; Food consumption of treated maize (T), Day 0 (maize treated at 160 g/dt, 40 g offered beside 40 g untreated, single pigeon (aviary), Day 0): 0.0 g; Food consumption of treated maize (T), Day 2 (maize treated at 160 g/dt, choice with untreated, single pigeon): 0.0 g
